# Test results: patent publication US20020086278A1, “CHROMOGENIC MEDIA CONTAINING BLOOD OR HEMIN” (priority 1999, published 2002)
# Like-named read-outs stand apart in the source and are kept apart here.
# Key:
# [1] = test system: Serratia marcescens (sema); assay: Example 3: colony color on chromogenic TSA II with 5% sheep blood (chromogen in medium); assay type: cell-based; conditions: for Colony Color: sema 13880, CO2
# S. agalactiae 12386 = assay: Example 2: effect of incubation conditions on colony color formation; assay type: cell-based, Streptococcus agalactiae; conditions: 0.004 g/plate, 24 h, CO2
# [2] = test system: Branhamella catarrhalis 25238; assay: Example 1: growth and colony color on plates surface-spread with chromogen; assay type: cell-based; conditions: TSA Plain; B. catt 25258
# E. faecium (enfu) = assay: Example 3: colony color on chromogenic TSA II with 5% sheep blood (chromogen in medium); assay type: cell-based
# [3] = test system: Staphylococcus aureus (stau); assay: as above; assay type: cell-based
# Escherichia coli 25922 = assay: Example 1: growth and colony color on plates surface-spread with chromogen; assay type: cell-based; conditions: TSA II 5SB; E. coli 25922
# S. milleri (stmi) = assay: Example 3: colony color on chromogenic TSA II with 5% sheep blood (chromogen in medium); assay type: cell-based; conditions: for Colony Color: stmi 6249, 21 h
# [4] = test system: Klebsiella pneumoniae (klpn); assay: as above; assay type: cell-based; conditions: for Colony Color: CO2
# [5] = test system: Gardnerella vaginalis 14019; assay: Example 1: growth and colony color on plates surface-spread with chromogen; assay type: cell-based; conditions: Substrate on Choclate II Agar; G. vag. 14019
# [6] = test system: Streptococcus agalactiae (stag); assay: Example 3: colony color on chromogenic TSA II with 5% sheep blood (chromogen in medium); assay type: cell-based
# [7] = test system: Streptococcus pneumoniae 6303; assay: Example 1: growth and colony color on plates surface-spread with chromogen; assay type: cell-based; conditions: TSA Plain; S. pneu: 6303
# [8] = test system: Citrobacter freundii (cifr); assay: Example 3: colony color on chromogenic TSA II with 5% sheep blood (chromogen in medium); assay type: cell-based; conditions: for Colony Color: CO2
# [9] = Precipitate of chromogen on pre-plated media; assay type: physicochemical; conditions: After 1 week
# Method: 50 μl of each chromogen solution was added to the surface of each of the following pre-plated media (one chromogen solution per plate):
# The solution was dispersed using a spreader and allowed to dry 3-4 hours in a hood.
# Candida albicans (caal) = assay: Example 3: colony color on chromogenic TSA II with 5% sheep blood (chromogen in medium); assay type: cell-based; conditions: for Colony Color: caal 10231
# Salmonella spp. (sasp) = assay type: cell-based; conditions: for Colony Color: CO2
# [10] = test system: Aeromonas hydrophilia (aehy); assay: Example 3: colony color on chromogenic TSA II with 5% sheep blood (chromogen in medium); assay type: cell-based; conditions: CO2
# [11] = test system: Entercoccus faecalis (enfa); assay: as above; assay type: cell-based; conditions: for Colony Color: CO2
# N. gonorrhoeae 35201 = assay: Example 1: growth and colony color on plates surface-spread with chromogen; assay type: cell-based; conditions: Substrate on Choclate II Agar; N. gono. 35201
# [12] = test system: Staphylococcus Coag Neg (step); assay: Example 3: colony color on chromogenic TSA II with 5% sheep blood (chromogen in medium); assay type: cell-based; conditions: for Colony Color on Various Chromogenic TSA II with 5% Sheep Blood: 18 h; for Colony Color: 21 h
# S pyogenes (stpy) = assay: as above; assay type: cell-based; conditions: for Colony Color on Various Chromogenic TSA II with 5% Sheep Blood: 18 h
# cakr 34135 = assay: as above; assay type: cell-based
# milu 9341 = assay: as above; assay type: cell-based
# Group B Strep. 12386 = assay: Example 1: growth and colony color on plates surface-spread with chromogen; assay type: cell-based; conditions: for Color: Group B Strep 12386
# [13] = test system: Branhamella catarrhalis (brca); assay: Example 3: colony color on chromogenic TSA II with 5% sheep blood (chromogen in medium); assay type: cell-based; conditions: for Colony Color: CO2
# [14] = chromogenic TSA II with 5% Sheep Blood, 0.1 g/l, 1 strain tested
# [15] = chromogenic TSA II with 5% Sheep Blood, 0.1 g/l, 5 strains tested
# [16] = chromogenic TSA II with 5% Sheep Blood, 0.1 g/l, 2 strains tested
# [17] = chromogenic TSA II with 5% Sheep Blood, 0.1 g/l, 3 strains tested
compound,measurement,setting,value
"OC[C@H]1O[C@@H](Oc2c[nH]c3ccc(Br)c(Cl)c23)[C@H](O)[C@@H](O)[C@@H]1O [X-Glucoside, 5-Br-4-Cl-3-indolyl-β-D-glucopyranoside]",Colony Color (Summary),[1]; [14],+
same,Colony Color,[1]; 18 h,bg
same,Colony Color,[1]; 21 h,gb
same,Colony Color,S. agalactiae 12386; Chocolate II Agar,blue (d)
same,Colony Color,S. agalactiae 12386; TSA II 5% Sheep Blood,blue (d)
same,Growth,[2],<
same,Colony Color (Summary),E. faecium (enfu); [14],+
same,Colony Color,"E. faecium (enfu); enfu 49032, CO2, 18 h",db
same,Colony Color (Summary),[3]; [15],0
same,Colony Color,"[3]; stau 1006, CO2, 21 h",0
same,Colony Color,"[3]; stau 1007, CO2, 21 h",0
same,Colony Color,"[3]; stau 1008, CO2, 21 h",0
same,Colony Color,"[3]; stau 1009, CO2, 21 h",0
same,Colony Color,"[3]; stau 25923, CO2, 18 h",0
same,Colony Color,"[3]; stau 25923, CO2, 24 h",0
same,Colony Color,"[3]; stau 25923, air, 24 h",0
same,Colony Color on Various Chromogenic TSA II with 5% Sheep Blood,"[3]; stau t006, CO2, 18 h",0
same,Colony Color on Various Chromogenic TSA II with 5% Sheep Blood,"[3]; stau t007, CO2, 18 h",0
same,Colony Color on Various Chromogenic TSA II with 5% Sheep Blood,"[3]; stau t008, CO2, 18 h",0
same,Colony Color on Various Chromogenic TSA II with 5% Sheep Blood,"[3]; stau t009, CO2, 18 h",0
same,Growth,Escherichia coli 25922,4
same,Colony Color (Summary),S. milleri (stmi); [16],0
same,Colony Color on Various Chromogenic TSA II with 5% Sheep Blood,"S. milleri (stmi); stmi 6242, CO2, 18 h",0
same,Colony Color,S. milleri (stmi); CO2,0
same,Colony Color,S. milleri (stmi); air,0
same,Colony Color (Summary),[4]; [17],+
same,Colony Color,"[4]; klpn 13883, 21 h",gb
same,Colony Color,"[4]; klpn 33495, 18 h",gb
same,Colony Color,"[4]; klpn 33606, 18 h",gb
same,Colony Color,"[4]; klpn 33606, 21 h",gb
same,Growth,[5],<
same,Colony hemolytic activity,[6]; Group B Strep on X-glucoside TSA II,slightly reduced
same,Colony Color,"[6]; Group B Strep, 3 of 3 strains, X-glucoside TSA II",blue
same,Colony Color (Summary),[6]; [17],+
same,CAMP test,[6]; on X-glucoside TSA II,works well
same,Colony Color,"[6]; stag 4768, air, 21 h",lb
same,Growth,[7],<
same,Colony Color (Summary),[8]; [16],0
same,Colony Color,"[8]; cifr 8454, 18 h",0
same,Colony Color,"[8]; cifr 8454, 21 h",0
same,Colony Color,"[8]; cifr 33128, 18 h",0
same,Colony Color,"[8]; cifr 33128, 21 h",0
same,Precipitate on plates after 1 week,[9],some precipitate was evident
same,Colony Color,"Candida albicans (caal); CO2, 18 h",0
same,Colony Color,"Candida albicans (caal); CO2, 24 h",0
same,Colony Color,"Candida albicans (caal); air, 24 h",0
same,Colony Color (Summary),Candida albicans (caal); [16],0
same,Colony Color (Summary),Salmonella spp. (sasp); [16],0
same,Colony Color,"Salmonella spp. (sasp); saty 19430, 18 h",0
same,Colony Color,"Salmonella spp. (sasp); saty 19430, 21 h",0
same,Colony Color,"Salmonella spp. (sasp); satym 14028, 18 h",0
same,Colony Color,"Salmonella spp. (sasp); satym 14028, 21 h",0
same,Colony Color,"[10]; aehy 7965, 18 h",0
same,Colony Color,"[10]; aehy 7965, 21 h",0
same,Colony Color,"[10]; aehy 7966, 18 h",0
same,Colony Color,"[10]; aehy 49847, 18 h",gb
same,Colony Color,"[10]; aehy 49847, 21 h",gb
same,Colony Color (Summary),"[11]; chromogenic TSA II with 5% Sheep Blood, 0.1 g/l, 6 strains tested",+
same,Colony Color,"[11]; enfa 597, 18 h",db
same,Colony Color,"[11]; enfa 10741, 18 h",db
same,Colony Color,"[11]; enfa 10741, 21 h",db
same,Colony Color,"[11]; enfa 12953, 18 h",db
same,Colony Color,"[11]; enfa 12953, 21 h",db
same,Colony Color,"[11]; enfa 14506, 18 h",db
same,Colony Color,"[11]; enfa 14506, 21 h",db
same,Colony Color,"[11]; enfa 29212, 18 h",db
same,Colony Color,"[11]; enfa 29212, 21 h",db
same,Growth,N. gonorrhoeae 35201,<
same,Colony Color (Summary),[12]; [15],0
same,Colony Color on Various Chromogenic TSA II with 5% Sheep Blood,"[12]; step 12228, CO2",0
same,Colony Color,"[12]; step 12228, CO2",0
same,Colony Color,"[12]; step 12228, air",0
same,Colony Color on Various Chromogenic TSA II with 5% Sheep Blood,"[12]; step cdc1, CO2",0
same,Colony Color,"[12]; step cdc1, CO2",0
same,Colony Color,"[12]; step cdc1, air",0
same,Colony Color,"[12]; step cdc2, CO2",0
same,Colony Color,"[12]; step cdc2, air",0
same,Colony Color,"[12]; step cdc3, CO2",0
same,Colony Color,"[12]; step cdc3, air",0
same,Colony Color on Various Chromogenic TSA II with 5% Sheep Blood,"[12]; step cdc4, CO2",0
same,Colony Color,"[12]; step cdc4, CO2",0
same,Colony Color,"[12]; step cdc4, air",0
same,Colony Color on Various Chromogenic TSA II with 5% Sheep Blood,"[12]; stha cdc2, CO2",0
same,Colony Color on Various Chromogenic TSA II with 5% Sheep Blood,"[12]; stsa cdc3, CO2",0
same,Colony Color,"S pyogenes (stpy); 4 of 7 S. pyogenes, X-glucoside TSA II",light grey blue
same,Colony Color,"S pyogenes (stpy); stpy 1027, CO2, 21 h",0
same,Colony Color,"S pyogenes (stpy); stpy 1028, CO2, 21 h",lgb
same,Colony Color,"S pyogenes (stpy); stpy 1029, CO2, 21 h",lgb
same,Colony Color,"S pyogenes (stpy); stpy 1030, CO2, 21 h",gb
same,Colony Color,"S pyogenes (stpy); stpy 19615, CO2, 21 h",gb
same,Colony Color,"S pyogenes (stpy); stpy 19615, air, 21 h",lgb
same,Colony Color,"S pyogenes (stpy); stpy 49117, CO2, 21 h",0
same,Colony Color,"S pyogenes (stpy); stpy 49117, air, 21 h",0
same,Colony Color on Various Chromogenic TSA II with 5% Sheep Blood,"S pyogenes (stpy); stpy 51339, CO2",0
same,Colony Color,"S pyogenes (stpy); stpy 51339, CO2, 21 h",0
same,Colony Color,"S pyogenes (stpy); stpy 51339, air, 21 h",lgb
same,Colony Color on Various Chromogenic TSA II with 5% Sheep Blood,"S pyogenes (stpy); stpy t027, CO2",0
same,Colony Color on Various Chromogenic TSA II with 5% Sheep Blood,"S pyogenes (stpy); stpy t028, CO2",0
same,Colony Color on Various Chromogenic TSA II with 5% Sheep Blood,"S pyogenes (stpy); stpy t029, CO2",0
same,Colony Color on Various Chromogenic TSA II with 5% Sheep Blood,"S pyogenes (stpy); stpy t030, CO2",lgb
same,Colony Color,"cakr 34135; CO2, 18 h",0
same,Colony Color,"cakr 34135; CO2, 21 h",0
same,Colony Color,"milu 9341; CO2, 18 h",ly
same,Colony Color,"milu 9341; CO2, 21 h",0
same,Color,Group B Strep. 12386; Choc II,blue
same,Substrates Producing Color,"Group B Strep. 12386; Summary of Table I, Group B Strep. 12386","X-Glucoside, X-"
same,Color,Group B Strep. 12386; TSA II 5SB,blue
same,Color,Group B Strep. 12386; TSA Plain,blue
same,Colony Color,"[13]; brca 25238, 18 h",0
same,Colony Color,"[13]; brca 25238, 21 h",0
same,Colony Color,"[13]; brca 25240, 18 h",0
same,Colony Color,"[13]; brca 25240, 21 h",0
same,Colony Color (Summary),[13]; [16],0
